Source: patent US6620833B1, “Substituted benzimidazoles, production and use thereof as agents for combating parasitic protozoas” (Bayer Aktiengesellschaft, priority 1998, dated 2003)

Legend:
Assay type in all cases: in vivo
[1] = tested on: Eimeria maxima; experiment: Cage experiment on coccidiosis/chicks, E. maxima readout
[2] = tested on: Eimeria acervulina, Eimeria maxima and Eimeria tenella; experiment: Cage experiment on coccidiosis/chicks, mixed experimental infection; settings: for dropping scores / lesion score: assessment 0 to 6; for mortality n: dead animals/animals employed
Protocol: 8 to 12 day-old male chicks (e.g. LSL Brinkschulte/Senden) which have been reared coccidia-free receive the compounds according to the invention (test substances) in the concentration indicated in ppm with the feed from 3 days before (day −3) infection (=a.i.) until 8 (9) days after infection (=p.i.). 3 animals are kept in each cage. One or more groups of this type are employed per dose. Infection is carried out by means of a stomach tube directly into the crop with approximately 100,000 sporulated oocysts of Eimeria acervulina and with approximately 30,000 oocysts each of E. maxima and 40,000 sporulated oocysts of E. tenella. These are highly virulent strains. The exact infection dose is adjusted so that, if possible, one of three experimentally infected untreated chicks dies due to the infection. For assessment of the efficacy, the following criteria are taken into account: weight increase from the start of the experiment to the end of the experiment, death rate due to infection, macroscopic assessment of the faeces with respect to diarrhoea and excretion of blood on days 5 and 7 p.i. (assessment 0 to 6), macroscopic assessment of the intestinal mucosa, in particular of the appendices (assessment 0 to 6) and the oocyst excretion as well as the proportion (in %) of the oocysts sporulating in the course of 24 hours. The number of oocysts in the faeces was determined with the aid of a McMaster counting chamber (see Engelbrecht and coworkers “Parasitologische Arbeitsmethoden in Medizin and Veterinärmedizin” [Parasitological Working Methods in Medicine and Veterinary Medicine], Akademie-Verlag, Berlin (1965)). The individual findings are related to the untreated non-infected control groups and a total score is calculated (cf. A. Haberkorn (1986), pp. 263 to 270 in Research in Avian Coccidiosis ed L. R. McDougald, L. P. Joyner, P. L. Long, Proceedings of the Georgia Coccidiosis Conference, Nov. 18-20, 1985. Athens/Georgia USA).
In the column “ppm”, the concentration of the active compound employed in the feed is indicated in ppm.
In the column “mortality” the percentage of the dead animals is indicated under % and the number of dead animals/animals employed in the experiment is indicated under n.
In the column “weight % of not inf. control” the ratio of the weight of the treated animals to the weight of the non-infected control group is indicated.
In the columns “dropping scores”, “lesion score” and “oocyst control”, individual details of the action are given.
In the column “% efficacy”, the total score is assessed; 0% means no action, 100% means full action.

[3] = tested on: Eimeria tenella; experiment: Cage experiment on coccidiosis/chicks, E. tenella readout
[4] = tested on: Eimeria acervulina; experiment: Cage experiment on coccidiosis/chicks, E. acervulina readout

## CO[C@@H]1[C@@H](OC)[C@H](C)[C@@](O)(CC(=O)O)O[C@H]1[C@H](C)[C@H]1O[C@@]2(CC[C@@](C)([C@H]3CC[C@@](C)([C@@H]4O[C@@H]([C@H]5O[C@](C)(O)[C@H](C)C[C@@H]5C)C[C@@H]4O[C@@H]4C[C@H](OC)[C@@H](OC)[C@H](C)O4)O3)O2)C[C@H](O)[C@H]1C [MAD, Maduramicin, reference compound]
[1]; Table 2, 1 ppm in feed
  oocyst in % of inf. control max.: 100%
[1]; Table 2, 2 ppm in feed
  oocyst in % of inf. control max.: 100%
[1]; Table 2, 3 ppm in feed
  oocyst in % of inf. control max.: 0%
[2]; Table 2, 1 ppm in feed
  % efficacy tot.: 73%
  mortality %: 0%
  oocyst in % of inf. control tot.: 46%
  weight % of not inf. control: 93%
  dropping scores: 1
  lesion score: 2
  mortality n: 0/3
[2]; Table 2, 2 ppm in feed
  % efficacy tot.: 84%
  mortality %: 0%
  oocyst in % of inf. control tot.: 51%
  weight % of not inf. control: 114%
  dropping scores: 0
  lesion score: 2
  mortality n: 0/3
[2]; Table 2, 3 ppm in feed
  % efficacy tot.: 100%
  mortality %: 0%
  oocyst in % of inf. control tot.: 1.3%
  weight % of not inf. control: 112%
  dropping scores: 0
  lesion score: 0
  mortality n: 0/3
[3]; Table 2, 1 ppm in feed
  oocyst in % of inf. control ten.: 30%
[3]; Table 2, 2 ppm in feed
  oocyst in % of inf. control ten.: 45%
[3]; Table 2, 3 ppm in feed
  oocyst in % of inf. control ten.: 3%
[4]; Table 2, 1 ppm in feed
  oocyst in % of inf. control ac.: 8%
[4]; Table 2, 2 ppm in feed
  oocyst in % of inf. control ac.: 8%
[4]; Table 2, 3 ppm in feed
  oocyst in % of inf. control ac.: 1%

## CC[C@@]1([C@@H]2O[C@@H]([C@H]3O[C@@](O)(CO)[C@H](C)C[C@@H]3C)C[C@@H]2C)CC[C@H]([C@]2(C)CC[C@]3(C[C@H](O)[C@@H](C)[C@@H]([C@@H](C)[C@@H](OC)[C@H](C)C(=O)O)O3)O2)O1 [Mon., Monensin, reference compound]
[1]; Table 1, 25 ppm in feed
  oocyst in % of inf. control max.: 0%
[1]; Table 1, 50 ppm in feed
  oocyst in % of inf. control max.: 0%
[1]; Table 1, 100 ppm in feed
  oocyst in % of inf. control max.: 0%
[2]; Table 1, 25 ppm in feed
  % efficacy tot.: 45%
  mortality %: 33%
  oocyst in % of inf. control tot.: 66%
  weight % of not inf. control: 36%
  dropping scores: 6
  lesion score: 6
  mortality n: 1/3
[2]; Table 1, 50 ppm in feed
  % efficacy tot.: 36%
  mortality %: 33%
  oocyst in % of inf. control tot.: 19%
  weight % of not inf. control: 81%
  dropping scores: 6
  lesion score: 6
  mortality n: 1/3
[2]; Table 1, 100 ppm in feed
  % efficacy tot.: 24%
  mortality %: 33%
  oocyst in % of inf. control tot.: 36%
  weight % of not inf. control: 30%
  dropping scores: 6
  lesion score: 6
  mortality n: 1/3
[3]; Table 1, 25 ppm in feed
  oocyst in % of inf. control ten.: 100%
[3]; Table 1, 50 ppm in feed
  oocyst in % of inf. control ten.: 13%
[3]; Table 1, 100 ppm in feed
  oocyst in % of inf. control ten.: 100%
[4]; Table 1, 25 ppm in feed
  oocyst in % of inf. control ac.: 98%
[4]; Table 1, 50 ppm in feed
  oocyst in % of inf. control ac.: 44%
[4]; Table 1, 100 ppm in feed
  oocyst in % of inf. control ac.: 8%

## CC[C@@H](C(=O)[C@@H](C)[C@@H](O)[C@H](C)[C@@H]1O[C@@H]([C@@H](CC)C(=O)O)CC[C@@H]1C)[C@H]1O[C@]2(C=C[C@@H](O)[C@]3(CC[C@@](C)([C@H]4CC[C@](O)(CC)[C@H](C)O4)O3)O2)[C@H](C)C[C@@H]1C [Sal., Salinomycin, reference compound]
[1]; Table 3, 60 ppm in feed
  oocyst in % of inf. control max.: 0%
[2]; Table 3, 15 ppm in feed
  mortality %: 100%
  mortality n: 3/3
[2]; Table 3, 30 ppm in feed
  mortality %: 100%
  mortality n: 3/3
[2]; Table 3, 60 ppm in feed
  % efficacy tot.: 67%
  mortality %: 0%
  oocyst in % of inf. control tot.: 12%
  weight % of not inf. control: 106%
  dropping scores: 6
  lesion score: 1.3
  mortality n: 0/3
[3]; Table 3, 60 ppm in feed
  oocyst in % of inf. control ten.: 31%
[4]; Table 3, 60 ppm in feed
  oocyst in % of inf. control ac.: 6%
